Test results from US9751919B2, “Antimicrobial compositions comprising a hyaluronic acid binding peptide and a β-lactam antibiotic” (priority 2012, dated 2017).
Values joined by “and” are separate entries in the source; they are usually repeats but may differ in a detail not shown here. Identical values can stand only once. Like-named read-outs stand apart in the source and are kept apart here.

Columns and labels:
Test in all cases: MIC (CLSI broth dilution), agent alone
MSSA = format: cell-based, Staphylococcus aureus; settings: for MIC: agent alone
In short: (§1)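 S. aureus isolates were tested by CLSI 2005 broth macrodilution in doubling dilutions of cation-adjusted Mueller-Hinton broth. Inoculum was about 5×10^5 CFU/ml, with 24 h incubation in ambient air. MIC was the lowest concentration inhibiting visible growth, with an MSSA and ATCC QC strains as controls.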

CA-MRSA = format: cell-based, Staphylococcus aureus
In short: as §1

HA-MRSA = format: cell-based, Staphylococcus aureus; settings: for PEP35 (MIC): peptide alone
In short: as §1

E. coli = format: cell-based, Escherichia coli; settings: for MIC: agent alone
In short: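 E. coli strain 69717 was tested by CLSI 2005 broth macrodilution in cation-adjusted Mueller-Hinton broth with doubling dilutions. The inoculum was about 5×10^5 CFU/ml, incubated 24 h in ambient air. MIC is the lowest concentration preventing visible growth.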

VRSA = format: cell-based, Staphylococcus aureus; set-up: unit not given beside the values
Procedure: (§2) VISA (strains 92, 95 and 96), VRSA (strains 105 and 106) and E. coli (strain 69717) isolates were also tested. One MSSA was used as a control. All MICs were assessed using CLSI guidelines. Also assessed was the activity of cefazolin, ceftriazone, meropenem, and a piperacillin/tazobactam combination antibiotic. Minimum inhibitory concentration (MIC) is the lowest concentration of an antimicrobial that will inhibit the visible growth of a microorganism after incubation.
(§3) Antimicrobial Susceptibility Testing: A custom designed panel of antimicrobials was created. The panel included: PEP35, penicillin, piperacillin/tazobactam, cefazolin, ceftriaxone, meropenem, clarithromycin, clindamycin, gentamicin, amikacin, vancomycin, ciprofloxacin, levofloxacin, moxifloxacin, linezolid, trimethoprim/sulfamethoxazole and doxycycline. These agents were obtained as laboratory grade powders from their respective manufacturers. Stock solutions were prepared and dilutions made as described by the Clinical Laboratory Standards Institute (2005 CLSI). Following two subcultures from frozen stock the MICs of the antimicrobial agents for the isolates were determined by the CLSI 2005 approved broth macrodilution method. Briefly, test tubes containing doubling antibiotic dilutions (2 ml per tube) of cation adjusted Mueller-Hinton broth (eg. for Enterobacteriaceae) with or without lysed horse blood (2-5% V/V) [eg. for S. pneumoniae] were inoculated to achieve a final concentration of approximately 5×10^5 CFU/ml and incubated in ambient air for 24 hours prior to reading. Colony counts were performed periodically to confirm inocula. Quality control was performed every two weeks using a variety of ATCC QC organisms including; S. aureus 29213, E. faecalis 29212, E. coli 25922 and P. aeruginosa 27853. For all antimicrobials as well as PEP35, CLSI criteria were used.
(§4) One MSSA was used as a control. All MICs were assessed using CLSI guidelines.

VISA = format: cell-based, Staphylococcus aureus; set-up: unit: µg/mL
Procedure: as §2, §3, §4

[1] = CA-MRSA 69615 (USA400), agent alone
[2] = CA-MRSA 69615 (USA400)^a row, antibiotic alone, in µg/mL
[3] = CA-MRSA 69615 (USA400)^b row, antibiotic alone, in µg/mL
[4] = HA-MRSA 70798 (USA100/800), agent alone, in µg/mL
[5] = HA-MRSA 77090 (USA100/800), agent alone
[6] = HA-MRSA 77090 (USA100/800), agent alone, in µg/mL
[7] = HA-MRSA 77090 (USA100/800)^a row, antibiotic alone, in µg/mL
[8] = HA-MRSA 77090 (USA100/800)^b row, antibiotic alone, in µg/mL
[9] = HA-MRSA 77098 (USA100/800), agent alone
[10] = CA-MRSA 69615 (USA400), agent alone, in µg/mL
[11] = CA-MRSA 70857 (USA400), agent alone, in µg/mL

Compound | MIC (MSSA; MSSA 79333) | MIC (MSSA; S. aureus control) | MIC (CA-MRSA; [1]) | MIC (CA-MRSA; [2]) | MIC (CA-MRSA; [3]) | MIC (HA-MRSA; [4]) | MIC (HA-MRSA; [5]) | MIC (HA-MRSA; [6]) | MIC (HA-MRSA; [7]) | MIC (HA-MRSA; [8]) | MIC (E. coli; E. coli 69716, in µg/mL) | MIC (E. coli; E. coli 70752, in µg/mL) | MIC (VRSA; VRSA 105) | MIC (VRSA; VRSA 105, in µg/mL) | MIC (VRSA; VRSA 106) | MIC (VISA; VISA 92) | MIC (VISA; VISA 92, in µg/mL) | MIC (VISA; VISA 95, in µg/mL) | MIC (VISA; VISA 96) | MIC (CA-MRSA; [10]) | also measured
Cc1nnc(SCC2=C(C(=O)O)N3C(=O)[C@@H](NC(=O)Cn4cnnn4)[C@H]3SC2)s1 [Cefazolin] | 1 and 0.5/0.5 | 0.5/0.5 ug/ml | 64 and 64/64 | 64 | 64 | 512 | 128 and 256/256 | 128 and 64 | 128 | 128 | 2 | 128 | 128/128/128/ | 128 and 256 | 256/256 | 128/128 | 128 | 128 and 64 | 32/32 |  | MIC (MSSA; MSSA 79333, listed as CEFAZOLIN): 0.5/0.5; MIC (MSSA; Staphylococcus aureus, MSSA, S. aureus control, read-out: MIC): 0.5 µg/mL; MICs alone, range (CA-MRSA; 50 CA-MRSA strains): 2 to 256 µg/mL; strains resistant to the antibiotic (CA-MRSA; 50 CA-MRSA strains): 45 of the 50 strains; MIC (CA-MRSA; CA-MRSA 70857 (USA400), agent alone): 32 and 32/32; MIC (CA-MRSA; Staphylococcus aureus, MRSA / USA400): 256 µg/mL; MICs alone, range (HA-MRSA; 50 HA-MRSA strains): 2 to 512 µg/mL; strains resistant to the antibiotic (HA-MRSA; 50 HA-MRSA strains): 47 of the 50 strains; MIC (HA-MRSA; [9]): 512/512; MIC (HA-MRSA; Staphylococcus aureus, MRSA / USA200, HA-MRSA (CMRSA4/USA200), antibiotic alone, read-out: Cefazolin (MIC)): 256 µg/mL; MIC (HA-MRSA; Staphylococcus aureus, MRSA / USA500, HA-MRSA (CMRSA5/USA500), antibiotic alone, read-out: Cefazolin (MIC)): 2 µg/mL; MIC (HA-MRSA; Staphylococcus aureus, MRSA / USA600, HA-MRSA (CMRSA1/USA600), antibiotic alone, read-out: Cefazolin (MIC)): 128 µg/mL; MIC (HA-MRSA; Staphylococcus aureus, MRSA, HA-MRSA (CMRSA3/6), antibiotic alone, read-out: Cefazolin (MIC)): 256 µg/mL; MIC (HA-MRSA; Staphylococcus aureus, MRSA, HA-MRSA (CMRSA6), antibiotic alone, read-out: Cefazolin (MIC)): 256 µg/mL; MIC (HA-MRSA; Staphylococcus aureus, MRSA, HA-MRSA (CMRSA8), antibiotic alone, read-out: Cefazolin (MIC)): 64 µg/mL; Cefazolin (MIC) (E. coli; E. coli, antibiotic alone, two values in cell): 2/2; MIC (E. coli; Escherichia coli, E. coli control, read-out: MIC): 2 µg/mL; MIC (VRSA; VRSA 106, in µg/mL): 256 and 128; MIC (VISA; VISA 95, listed as CEFAZOLIN, in µg/mL): 128; MIC (VISA; VISA 96, in µg/mL): 64 and 32
CO/N=C(\C(=O)N[C@@H]1C(=O)N2C(C(=O)O)=C(CSc3nc(=O)c(=O)[nH]n3C)CS[C@H]12)c1csc(N)n1 [Ceftriaxone] | 8 and 4/4 |  |  | 512 | 256 | 2048 | 512 and 1024/1024 |  | 512 | 512 |  |  | 2048 and 1024/1024 |  | 1024 and 2048/2048 | 1024/1024 | 1024 | 512 | 256 and 128/128 and 256/256 | 256 and 512 | MIC (MSSA; MSSA 79333, listed as CEFTRIAXONE): 4/4; MIC (CA-MRSA; CA-MRSA 69615 (USA400), agent alone, listed as CEFTRIAXONE, in µg/mL): 128 and 64; MIC (CA-MRSA; [11]): 256 and 128; MIC (HA-MRSA; [9]): 4096/4096; MIC (VRSA; VRSA 106, listed as CEFTRIAXONE): 1024/1024; MIC (VISA; VISA 95, listed as CEFTRIAXONE, in µg/mL): 1024 and 512
CN[C@H](CC(C)C)C(=O)N[C@H]1C(=O)N[C@@H](CC(N)=O)C(=O)N[C@H]2C(=O)N[C@H]3C(=O)N[C@H](C(=O)N[C@H](C(=O)O)c4cc(O)cc(O)c4-c4cc3ccc4O)[C@H](O)c3ccc(c(Cl)c3)Oc3cc2cc(c3O[C@@H]2O[C@H](CO)[C@@H](O)[C@H](O)[C@H]2O[C@H]2C[C@](C)(N)[C@H](O)[C@H](C)O2)Oc2ccc(cc2Cl)[C@H]1O [Vancomycin] | 1 and 0.5 |  | 1/1 |  |  |  | 1/1 |  |  |  |  |  | 512/512/512 |  | 512/512/512 | 4/4 |  |  | 4/4 |  | MIC (VRSA; VRSA 105, listed as VAN, in µg/mL): 512; MIC (VRSA; VRSA 106, listed as VAN, in µg/mL): 512; MIC (VISA; VISA 95): 2 and 4
KKKKKLQLQLNLIKKKVQVSVVVVRRH (Reordered human peptide sequence) [Scrambled PEP35] |  |  |  |  |  | 256 |  | 512 |  |  | 8 | 8 |  | 64 |  |  | 2048 | 2048 |  | 256 | MIC (MSSA; MSSA 79333, in µg/mL): 64; MIC (CA-MRSA; [11]): 256; activity (in words) (E. coli; vs E. coli): active; MIC (VRSA; VRSA 106, in µg/mL): 128; MIC (VISA; VISA 96, in µg/mL): 1024
LKQKIKHVVKLKVVVKLRSQLVKRKQN (listed as Mus sp.) [PEP35] |  | 512 µg/mL |  |  |  | 512 |  | 256 and 512 |  |  | 128 | 128 |  | 128 and 64 | 128 and 128/128/128 | 1024 and 2048/2048/2048 |  |  | 512 and 512/512/512 | 512 | MIC (MSSA; MSSA 79333, in µg/mL): 128 and 256; PEP35 (MIC) (MSSA; S. aureus (printed without strain; control row), peptide alone): 1024 µg/mL; MIC (CA-MRSA; CA-MRSA (CMRSA7/USA400/MW2) isolates, one per table line, agent alone): 512 µg/mL; PEP35 (MIC) (HA-MRSA; HA-MRSA (CMRSA1/USA600)): 256 µg/mL; PEP35 (MIC) (HA-MRSA; HA-MRSA (CMRSA5/USA500)): 512 µg/mL; PEP35 (MIC) (HA-MRSA; HA-MRSA (CMRSA8)): 1024 µg/mL; MIC (E. coli; E. coli control): 64 µg/mL; PEP35 (MIC) (E. coli; E. coli, peptide alone): 64 µg/mL
